Assay results taken from ChEMBL document CHEMBL2074222, “Transport properties of nonsteroidal anti-inflammatory drugs by organic anion transporter 1 expressed in Xenopus laevis oocytes” (Mol Pharmacol, 1999).

Columns and labels:
Format in all cases: functional, cell-based, Oocyte
[1] = target: T1, Solute carrier family 22 member 6 (SLC22A6) (Rattus norvegicus, UniProt O35956); test: TP_TRANSPORTER: inhibition of PAH uptake (PAH: 2 uM, Antipyrine: 1000 uM) in Xenopus laevis oocytes; conditions: probe PAH
T1 sequence (O35956 whole entry): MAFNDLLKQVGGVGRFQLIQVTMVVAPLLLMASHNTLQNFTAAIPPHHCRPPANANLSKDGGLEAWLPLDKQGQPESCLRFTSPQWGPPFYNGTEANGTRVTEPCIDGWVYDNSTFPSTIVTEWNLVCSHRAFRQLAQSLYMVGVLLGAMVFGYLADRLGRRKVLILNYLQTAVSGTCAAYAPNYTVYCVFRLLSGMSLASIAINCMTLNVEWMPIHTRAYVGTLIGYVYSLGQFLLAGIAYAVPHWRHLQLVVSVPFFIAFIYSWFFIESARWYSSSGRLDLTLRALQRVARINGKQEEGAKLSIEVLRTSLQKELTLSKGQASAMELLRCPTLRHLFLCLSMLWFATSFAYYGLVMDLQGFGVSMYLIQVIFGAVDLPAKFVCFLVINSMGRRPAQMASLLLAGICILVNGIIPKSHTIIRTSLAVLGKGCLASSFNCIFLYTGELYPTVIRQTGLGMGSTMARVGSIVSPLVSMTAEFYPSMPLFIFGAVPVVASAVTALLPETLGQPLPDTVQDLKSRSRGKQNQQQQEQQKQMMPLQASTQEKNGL

[2] = target: T1, Solute carrier family 22 member 6 (SLC22A6); test: TP_TRANSPORTER: inhibition of PAH uptake (PAH: 2 uM, Flurbiprofen: 1000 uM) in Xenopus laevis oocytes; conditions: probe PAH
[3] = target: T1, Solute carrier family 22 member 6 (SLC22A6); test: TP_TRANSPORTER: inhibition of PAH uptake (PAH: 2 uM, Diclofenac: 1000 uM) in Xenopus laevis oocytes; conditions: probe PAH
[4] = target: T1, Solute carrier family 22 member 6 (SLC22A6); test: TP_TRANSPORTER: inhibition of PAH uptake (PAH: 2 uM, Benzydamine: 1000 uM) in Xenopus laevis oocytes; conditions: probe PAH
[5] = target: T1, Solute carrier family 22 member 6 (SLC22A6); test: TP_TRANSPORTER: inhibition of PAH uptake (PAH: 2 uM, Phenylbutazone: 1000 uM) in Xenopus laevis oocytes; conditions: probe PAH
[6] = target: T2, Solute carrier family 22 member 6 (Rattus norvegicus, UniProt O35956); test: TP_TRANSPORTER: inhibition of PAH uptake in Xenopus laevis oocytes
T2 sequence (O35956 whole entry): T1 sequence (O35956 whole entry)

[7] = target: T1, Solute carrier family 22 member 6 (SLC22A6); test: TP_TRANSPORTER: inhibition of PAH uptake (PAH: 2 uM, Diflunisal: 1000 uM) in Xenopus laevis oocytes; conditions: probe PAH
[8] = target: T1, Solute carrier family 22 member 6 (SLC22A6); test: TP_TRANSPORTER: inhibition of PAH uptake (PAH: 2 uM, Ketoprofen: 1000 uM) in Xenopus laevis oocytes; conditions: probe PAH
[9] = target: T1, Solute carrier family 22 member 6 (SLC22A6); test: TP_TRANSPORTER: inhibition of PAH uptake (PAH: 2 uM, Meclofenamate: 1000 uM) in Xenopus laevis oocytes; conditions: probe PAH
[10] = target: T1, Solute carrier family 22 member 6 (SLC22A6); test: TP_TRANSPORTER: inhibition of PAH uptake (PAH: 2 uM, Tolmetin: 1000 uM) in Xenopus laevis oocytes; conditions: probe PAH
[11] = target: T1, Solute carrier family 22 member 6 (SLC22A6); test: TP_TRANSPORTER: inhibition of PAH uptake (PAH: 2 uM, […]: 1000 uM) in Xenopus laevis oocytes; conditions: probe PAH

Q: For `Cc1cc(=O)n(-c2ccccc2)n1C` [ANTIPYRINE], which inhibition at 1000 µM [1] is on record?
A: The inhibition at 1000 µM was 37.8%.

Q: For `CC(C(=O)O)c1ccc(-c2ccccc2)c(F)c1` (stereo unspecified) [FLURBIPROFEN], which inhibition at 1000 µM [2] is on record?
A: The inhibition at 1000 µM was 100%.

Q: With `O=C(O)Cc1ccccc1Nc1c(Cl)cccc1Cl` [DICLOFENAC] as the molecule, how does the inhibition at 1000 µM [3] read?
A: The inhibition at 1000 µM was 100%.

Q: How did the inhibition at 1000 µM [4] turn out when `NCc1ccccc1` [BENZYLAMINE] was run?
A: The inhibition at 1000 µM was 60%.

Q: Which inhibition at 1000 µM [5] does the source give for `CCCCC1C(=O)N(c2ccccc2)N(c2ccccc2)C1=O` [PHENYLBUTAZONE] here?
A: The inhibition at 1000 µM was 98.8%.

Q: Which Ki [6] does the source give for `COc1ccc2c(c1)c(CC(=O)O)c(C)n2C(=O)c1ccc(Cl)cc1` [INDOMETHACIN] here?
A: The Ki was 10 µM.

Q: How did the inhibition at 1000 µM [7] turn out when `O=C(O)c1cc(-c2ccc(F)cc2F)ccc1O` [DIFLUNISAL] was run?
A: The inhibition at 1000 µM was 100%.

Q: For `COc1ccc2cc([C@H](C)C(=O)O)ccc2c1` [NAPROXEN], which Ki [6] is on record?
A: Its Ki is 2 µM.

Q: How did the Ki [6] turn out when `CCOc1ccc(NC(C)=O)cc1` [PHENACETIN] was run?
A: The Ki was 488 µM.

Q: How did the inhibition at 1000 µM [8] turn out when `CC(C(=O)O)c1cccc(C(=O)c2ccccc2)c1` (stereo unspecified) [KETOPROFEN] was run?
A: Its inhibition at 1000 µM is 100%.

Q: For `Cc1ccc(Cl)c(Nc2ccccc2C(=O)O)c1Cl` [MECLOFENAMIC ACID], which inhibition at 1000 µM [9] is on record?
A: The inhibition at 1000 µM was 99.8%.

Q: How did the Ki [6] turn out when `O=C(O)CNC(=O)c1ccccc1O` [SALICYLURIC ACID] was run?
A: The Ki was 11 µM.

Q: `Cc1ccc(C(=O)c2ccc(CC(=O)O)n2C)cc1` [TOLMETIN] was tested. Which inhibition at 1000 µM [10] did it give?
A: Its inhibition at 1000 µM is 99.5%.

Q: How did the inhibition at 1000 µM [11] turn out when `Cc1c(N(C)C)c(=O)n(-c2ccccc2)n1C` [AMINOPYRINE] was run?
A: The inhibition at 1000 µM was 23.8%.

Q: Which Ki [6] does the source give for `CCCCC1C(=O)N(c2ccccc2)N(c2ccc(O)cc2)C1=O` (stereo unspecified) [OXYPHENBUTAZONE ANHYDROUS] here?
A: The Ki was 32 µM.

Q: Which Ki [6] does the source give for `CC(=O)Nc1ccc(O)cc1` [ACETAMINOPHEN] here?
A: The Ki was 2100 µM.
